Laboratory results from US20090312396A1, “METHODS FOR CANCER TREATMENT USING TAK1 INHIBITORS” (AstraZeneca AB, priority 2006, published 2009).

Legend:
[1] = tested on: Lymphoma cell lines carrying the t(14;18) chromosomal translocation; assay: AlamarBlue proliferation assay, Example 2; format: cell-based; details: t(14;18) lymphoma cell lines, 72 hours, 0 to 30 μmoles/L, FIG. 3
Protocol: The chemical name of the compound is 3-[(aminocarbonyl)amino]-5-(4-{[4-(2-methoxyethyl)piperazin-1-yl]methyl}phenyl)thiophene-2-carboxamide.
(§1) More specifically, cell lines (OCI-LY19, DOHH2, Karpas231, WSU-NHL and SUDHL4 carry the t(14;18) translocation) were plated at 10,000 cells/well in flat-bottomed 96 well plates and dosed with test compounds in triplicate over a 10 point dosing range from 0 to 30 μmolesL^−1. All cell lines were incubated with test compounds for a total of 72 hours. Background levels were determined for a control (undosed) plate within 2 hours of dosing test compounds. Following the dosing period, the extent of proliferation was measured by adding 1/10 (vol/vol) AlamarBlue reagent to every well and incubating the plates for a further 4 hours. The reaction was stopped by the addition of SDS to a final concentration of 0.1%. Fluorescence was measured at 545 nm (excitation) and 600 nm (emission). GI50 values were determined for each test compound across the panel.

Raji = assay: AlamarBlue proliferation assay, GI50; format: cell-based, human; details: Homo sapiens, Raji, 72 hours, Table 4, read-out: GI50 Raji Burkitts Lymphoma
Protocol: as §1, with “The TAK1 inhibitors are known in the art (see for example, WO 2003010158, WO 2003010163 and WO2004063186 the disclosures of which are incorporated by reference herein). All” for “More specifically,”, “lines” for “lines (OCI-LY19, DOHH2, Karpas231, WSU-NHL and SUDHL4 carry the t(14;18) translocation)”, “Growth inhibition 50 (GI50)” for “GI50”

TAK1 = target: T1, TAK1 (Homo sapiens, UniProt O43318); assay: TAK1 enzyme inhibition; format: biochemical; details: Table 4; read-out: TAK1 pIC50 (enzyme) (converted)
T1 sequence (O43318 1-606): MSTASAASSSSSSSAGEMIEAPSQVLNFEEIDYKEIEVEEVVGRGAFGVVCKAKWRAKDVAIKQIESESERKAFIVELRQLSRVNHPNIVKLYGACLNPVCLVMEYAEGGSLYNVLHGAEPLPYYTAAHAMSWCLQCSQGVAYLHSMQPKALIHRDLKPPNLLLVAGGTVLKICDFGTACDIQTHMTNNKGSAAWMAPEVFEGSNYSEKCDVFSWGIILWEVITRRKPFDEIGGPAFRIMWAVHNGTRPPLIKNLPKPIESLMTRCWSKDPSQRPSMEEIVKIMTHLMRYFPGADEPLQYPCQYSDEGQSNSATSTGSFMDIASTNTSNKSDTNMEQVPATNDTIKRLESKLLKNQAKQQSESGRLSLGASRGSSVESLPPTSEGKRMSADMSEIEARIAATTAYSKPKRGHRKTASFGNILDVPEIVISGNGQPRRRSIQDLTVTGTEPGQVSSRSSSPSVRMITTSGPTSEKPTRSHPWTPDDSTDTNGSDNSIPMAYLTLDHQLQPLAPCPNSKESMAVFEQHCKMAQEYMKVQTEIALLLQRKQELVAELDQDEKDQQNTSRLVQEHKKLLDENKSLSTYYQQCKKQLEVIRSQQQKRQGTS
T1 sequence (Q15750 1-504 partner): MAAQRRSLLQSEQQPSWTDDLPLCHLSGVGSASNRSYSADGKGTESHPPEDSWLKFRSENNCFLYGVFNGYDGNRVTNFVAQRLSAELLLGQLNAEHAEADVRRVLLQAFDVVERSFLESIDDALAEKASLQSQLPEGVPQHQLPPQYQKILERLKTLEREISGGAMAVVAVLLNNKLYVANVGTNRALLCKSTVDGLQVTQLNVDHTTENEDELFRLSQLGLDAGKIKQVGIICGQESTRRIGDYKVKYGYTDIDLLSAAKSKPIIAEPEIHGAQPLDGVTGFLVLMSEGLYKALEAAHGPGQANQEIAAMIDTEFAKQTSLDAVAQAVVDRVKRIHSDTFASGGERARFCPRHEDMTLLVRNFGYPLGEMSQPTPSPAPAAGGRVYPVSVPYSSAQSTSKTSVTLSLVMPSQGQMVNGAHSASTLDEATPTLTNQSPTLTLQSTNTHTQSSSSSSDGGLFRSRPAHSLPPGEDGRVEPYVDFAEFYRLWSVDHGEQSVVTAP

KG1a = assay: AlamarBlue proliferation assay, GI50; format: cell-based; details: Homo sapiens, KG-1a, 72 hours, Table 4, read-out: GI50 KG1a AML
Protocol: as §1, with “The TAK1 inhibitors are known in the art (see for example, WO 2003010158, WO 2003010163 and WO2004063186 the disclosures of which are incorporated by reference herein). All” for “More specifically,”, “lines” for “lines (OCI-LY19, DOHH2, Karpas231, WSU-NHL and SUDHL4 carry the t(14;18) translocation)”, “Growth inhibition 50 (GI50)” for “GI50”

DOHH2 = assay: AlamarBlue proliferation assay, GI50; format: cell-based; details: Homo sapiens, DOHH-2, 72 hours, Table 4, read-out: GI50 DOHH2 FL
Protocol: as §1, with “The TAK1 inhibitors are known in the art (see for example, WO 2003010158, WO 2003010163 and WO2004063186 the disclosures of which are incorporated by reference herein). All” for “More specifically,”, “lines” for “lines (OCI-LY19, DOHH2, Karpas231, WSU-NHL and SUDHL4 carry the t(14;18) translocation)”, “Growth inhibition 50 (GI50)” for “GI50”

Karpas231 = assay: AlamarBlue proliferation assay, GI50; format: cell-based; details: Homo sapiens, 72 hours, Table 4, read-out: GI50 Karpas231 B-ALL
Protocol: as §1, with “The TAK1 inhibitors are known in the art (see for example, WO 2003010158, WO 2003010163 and WO2004063186 the disclosures of which are incorporated by reference herein). All” for “More specifically,”, “lines” for “lines (OCI-LY19, DOHH2, Karpas231, WSU-NHL and SUDHL4 carry the t(14;18) translocation)”, “Growth inhibition 50 (GI50)” for “GI50”

ARH77 = assay: AlamarBlue proliferation assay, GI50; format: cell-based; details: Homo sapiens, ARH-77, 72 hours, Table 4, read-out: GI50 ARH77 Plasma cell leukemia
Protocol: as §1, with “The TAK1 inhibitors are known in the art (see for example, WO 2003010158, WO 2003010163 and WO2004063186 the disclosures of which are incorporated by reference herein). All” for “More specifically,”, “lines” for “lines (OCI-LY19, DOHH2, Karpas231, WSU-NHL and SUDHL4 carry the t(14;18) translocation)”, “Growth inhibition 50 (GI50)” for “GI50”

MEC1 = assay: AlamarBlue proliferation assay, GI50; format: cell-based; details: Homo sapiens, 72 hours, Table 4, read-out: GI50 MEC1 B-CLL
Protocol: as §1, with “The TAK1 inhibitors are known in the art (see for example, WO 2003010158, WO 2003010163 and WO2004063186 the disclosures of which are incorporated by reference herein). All” for “More specifically,”, “lines” for “lines (OCI-LY19, DOHH2, Karpas231, WSU-NHL and SUDHL4 carry the t(14;18) translocation)”, “Growth inhibition 50 (GI50)” for “GI50”

OCI-LY19 = assay: AlamarBlue proliferation assay, GI50; format: cell-based; details: Homo sapiens, 72 hours, Table 4, read-out: GI50 OCI-LY19 DLBCL
Protocol: as §1, with “The TAK1 inhibitors are known in the art (see for example, WO 2003010158, WO 2003010163 and WO2004063186 the disclosures of which are incorporated by reference herein). All” for “More specifically,”, “lines” for “lines (OCI-LY19, DOHH2, Karpas231, WSU-NHL and SUDHL4 carry the t(14;18) translocation)”, “Growth inhibition 50 (GI50)” for “GI50”

WSU-NHL = assay: AlamarBlue proliferation assay, GI50; format: cell-based; details: Homo sapiens, 72 hours, Table 4, read-out: GI50 WSU-NHL B-NHL
Protocol: as §1, with “The TAK1 inhibitors are known in the art (see for example, WO 2003010158, WO 2003010163 and WO2004063186 the disclosures of which are incorporated by reference herein). All” for “More specifically,”, “lines” for “lines (OCI-LY19, DOHH2, Karpas231, WSU-NHL and SUDHL4 carry the t(14;18) translocation)”, “Growth inhibition 50 (GI50)” for “GI50”

Jurkat = assay: AlamarBlue proliferation assay, GI50; format: cell-based; details: Homo sapiens, 72 hours, Table 4, read-out: GI50 Jurkat T-ALL
Protocol: as §1, with “The TAK1 inhibitors are known in the art (see for example, WO 2003010158, WO 2003010163 and WO2004063186 the disclosures of which are incorporated by reference herein). All” for “More specifically,”, “lines” for “lines (OCI-LY19, DOHH2, Karpas231, WSU-NHL and SUDHL4 carry the t(14;18) translocation)”, “Growth inhibition 50 (GI50)” for “GI50”

HEL92.1.7 = assay: AlamarBlue proliferation assay, GI50; format: cell-based; details: Homo sapiens, HEL 92.1.7, 72 hours, Table 4, read-out: GI50 HEL92.1.7 Erythroleukemia
Protocol: as §1, with “The TAK1 inhibitors are known in the art (see for example, WO 2003010158, WO 2003010163 and WO2004063186 the disclosures of which are incorporated by reference herein). All” for “More specifically,”, “lines” for “lines (OCI-LY19, DOHH2, Karpas231, WSU-NHL and SUDHL4 carry the t(14;18) translocation)”, “Growth inhibition 50 (GI50)” for “GI50”

SUDHL4 = assay: AlamarBlue proliferation assay, GI50; format: cell-based; details: Homo sapiens, SU-DHL-4, 72 hours, Table 4, read-out: GI50 SUDHL4 DLBCL
Protocol: as §1, with “The TAK1 inhibitors are known in the art (see for example, WO 2003010158, WO 2003010163 and WO2004063186 the disclosures of which are incorporated by reference herein). All” for “More specifically,”, “lines” for “lines (OCI-LY19, DOHH2, Karpas231, WSU-NHL and SUDHL4 carry the t(14;18) translocation)”, “Growth inhibition 50 (GI50)” for “GI50”

| SMILES | sensitivity of cell lines to TAK1 inhibitor [1] | GI50 (Raji) | IC50 (TAK1) | GI50 (KG1a) | GI50 (DOHH2) | GI50 (Karpas231) | GI50 (ARH77) | GI50 (MEC1) | GI50 (OCI-LY19) | GI50 (WSU-NHL) | GI50 (Jurkat) | GI50 (HEL92.1.7) | GI50 (SUDHL4) |
| --- | --- | --- | --- | --- | --- | --- | --- | --- | --- | --- | --- | --- | --- |
| COCCN1CCN(Cc2ccc(-c3cc(NC(N)=O)c(C(N)=O)s3)cc2)CC1 [TAK1 inhibitor, 3-[(aminocarbonyl)amino]-5-(4-{[4-(2-methoxyethyl)piperazin-1-yl]methyl}phenyl)thiophene-2-carboxamide] | sensitive | – | – | – | – | – | – | – | – | – | – | – | – |
| CC(c1ccc(-c2cc(C(N)=O)c(NC(N)=O)s2)cc1)N1CCCCC1 (stereo not shown) [Compound 2, 2-[(aminocarbonyl)amino]-5-[4-(1-piperidin-1-ylethyl)phenyl]thiophene-3-carboxamide] | – | 3500 nM | 50.1 nM | 400 nM | 14 nM | 140 nM | 250 nM | 160 nM | 5 nM | 250 nM | 4390 nM | 170 nM | 2420 nM |
